Inhibition data for 1 molecule are collected here from PMC6934184, “Selective DNA-PKcs inhibition extends the therapeutic index of localized radiotherapy and chemotherapy” (The Journal of Clinical Investigation, 2019).

In this test the target is T1, EPHA1 (Homo sapiens, UniProt P21709).
T1 construct: purchased Thermo Fisher Scientific (Life Technologies) SelectScreen
As to the kind of experiment: SelectScreen Z'LYTE. Format: biochemical. In short, it runs like this: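 Percent values come from Thermo SelectScreen profiling of NU5455, combining activity and binding assays. CSF1R was run in Z'LYTE format at Km app ATP, and CAMK1 in Adapta format with ATP listed at 10.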

Molecules are shown by their SMILES.

T1 sequence (P21709 26-976): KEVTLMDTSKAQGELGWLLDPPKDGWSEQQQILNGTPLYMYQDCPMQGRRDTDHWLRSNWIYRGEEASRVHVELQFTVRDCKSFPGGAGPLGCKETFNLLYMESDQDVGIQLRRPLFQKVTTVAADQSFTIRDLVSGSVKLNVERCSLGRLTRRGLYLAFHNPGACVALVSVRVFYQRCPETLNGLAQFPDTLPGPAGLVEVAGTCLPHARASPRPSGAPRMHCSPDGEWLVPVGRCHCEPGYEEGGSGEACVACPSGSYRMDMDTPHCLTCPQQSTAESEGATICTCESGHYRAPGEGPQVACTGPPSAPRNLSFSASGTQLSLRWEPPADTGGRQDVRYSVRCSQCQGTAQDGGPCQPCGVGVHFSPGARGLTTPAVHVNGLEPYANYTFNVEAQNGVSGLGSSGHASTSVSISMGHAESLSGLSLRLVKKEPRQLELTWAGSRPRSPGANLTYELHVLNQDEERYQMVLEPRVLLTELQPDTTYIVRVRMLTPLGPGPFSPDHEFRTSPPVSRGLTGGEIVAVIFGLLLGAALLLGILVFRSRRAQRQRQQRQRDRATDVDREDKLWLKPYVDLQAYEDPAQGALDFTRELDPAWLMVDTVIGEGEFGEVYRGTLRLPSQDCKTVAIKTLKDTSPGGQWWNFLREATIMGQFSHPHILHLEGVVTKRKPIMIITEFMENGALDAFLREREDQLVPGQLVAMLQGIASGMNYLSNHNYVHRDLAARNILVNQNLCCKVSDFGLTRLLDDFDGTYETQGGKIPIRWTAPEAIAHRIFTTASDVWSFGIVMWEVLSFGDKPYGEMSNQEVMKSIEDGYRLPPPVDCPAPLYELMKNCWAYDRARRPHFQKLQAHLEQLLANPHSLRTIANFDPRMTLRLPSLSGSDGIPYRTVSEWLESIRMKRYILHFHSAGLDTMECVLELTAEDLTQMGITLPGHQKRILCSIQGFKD

As for `CN(C(=O)CN1CCOCC1)c1ccc2sc3c(-c4cccc5c(=O)cc(N6CC7CCC(C6)O7)oc45)cccc3c2c1` [NU5455], testing at 1 µM gave an inhibition of 2.7%.
